US9456995B2, “Methods for inhibition of BNIP3 and prevention and treatment of ischemia reperfusion injury by tetra-O-methyl nordihydroguaiaretic acid” (THE JOHNS HOPKINS UNIVERSITY, priority 2012, dated 2016)

Key:
HL-1 mouse heart cells [1] = test: TUNEL assay of cell death induced by hypoxia in HL-1 cells; assay type: cell-based; conditions: M4N at 5-20 μM; 6 hour hypoxia (0.5% oxygen) followed with 18 hour normoxia; FIG. 1
Experimental: Cell Culture. HL-1 mouse heart cell line was a kind gift from Dr. Claycomb (LSU Health Science Centers, New Orleans La.) (Proc. Natl. Acad. Sci. U.S.A., 95: 2979-84 (1998)). HL-1 cells were cultured in Claycomb medium (Sigma, Saint Louis, Mo.) supplemented with FBS (10%), Norepinephrine (0.1 mM), L-Glutamine (2 mM), penicillin (100 units/ml) and streptomycin (100 μg/ml). Drugs were dissolved in dimethyl sulfoxide at the final concentrations in the medium less than 0.1%. When the cells were indicated to be cultured under hypoxic conditions, the cells were incubated at the oxygen concentration of 0.5% in the hypoxic chamber (BioSpherix Ltd, Lacona, N.Y.). Cell death assay. Terminal deoxynucleotidyl transferase dUTP nick end labeling (TUNEL) assay was conducted by using TUNEL apoptosis detection kits (Upstate, Temecula, Calif.), with some modifications. The cells were cultured in 12-well microwell culture dishes (Corning Inc., Corning, N.Y.). After the treatment, both the cells floating in the tissue culture medium and those attached to the bottoms of wells were collected together into plastic tubes. […] For the hypoxia treatment the cells were cultured under 0.5% oxygen concentration in a hypoxic chamber for 6 hours and returned the cells back to normoxic condition in a normal culture chamber, and then cell death was measured 18 hours later. […]

HL-1 mouse heart cells [2] = test: Trypan blue exclusion assay of cell death under hypoxia or normoxia in HL-1 cells; assay type: cell-based; conditions: M4N at 20 μM, FIG. 2
Experimental: Cell Culture. HL-1 mouse heart cell line was a kind gift from Dr. Claycomb (LSU Health Science Centers, New Orleans La.) (Proc. Natl. Acad. Sci. U.S.A., 95: 2979-84 (1998)). HL-1 cells were cultured in Claycomb medium (Sigma, Saint Louis, Mo.) supplemented with FBS (10%), Norepinephrine (0.1 mM), L-Glutamine (2 mM), penicillin (100 units/ml) and streptomycin (100 μg/ml). Drugs were dissolved in dimethyl sulfoxide at the final concentrations in the medium less than 0.1%. When the cells were indicated to be cultured under hypoxic conditions, the cells were incubated at the oxygen concentration of 0.5% in the hypoxic chamber (BioSpherix Ltd, Lacona, N.Y.). For the Trypan blue exclusion assay, the cells were washed with PBS (−) once and resuspended in PBS (−) again. […] In about 5 to 15 minutes the numbers of both the cells without staining and the cells with staining were counted. The percentages of the number of the cells with staining to the total cell number (which equals to the number of the cells with staining and that of the cells without staining) were calculated. […] For the hypoxia treatment the cells were cultured under 0.5% oxygen concentration in a hypoxic chamber for 6 hours and returned the cells back to normoxic condition in a normal culture chamber, and then cell death was measured 18 hours later. […]

BNIP3 [3] = test: BNIP3 expression by western blotting in HL-1 cells under hypoxia; assay type: cell-based, mouse; conditions: M4N at 10-40 μM; hypoxia for 6 hours then normoxia for 18 hours; FIG. 3
Experimental: Cell Culture. HL-1 mouse heart cell line was a kind gift from Dr. Claycomb (LSU Health Science Centers, New Orleans La.) (Proc. Natl. Acad. Sci. U.S.A., 95: 2979-84 (1998)). HL-1 cells were cultured in Claycomb medium (Sigma, Saint Louis, Mo.) supplemented with FBS (10%), Norepinephrine (0.1 mM), L-Glutamine (2 mM), penicillin (100 units/ml) and streptomycin (100 μg/ml). Drugs were dissolved in dimethyl sulfoxide at the final concentrations in the medium less than 0.1%. When the cells were indicated to be cultured under hypoxic conditions, the cells were incubated at the oxygen concentration of 0.5% in the hypoxic chamber (BioSpherix Ltd, Lacona, N.Y.). Western blotting. After cells had been grown in […] flasks and treated with reagents, the cells were washed with PBS (−) three times and suspended in RIPA buffer (150 mM NaCl, 50 mM Tris-HCl (pH 8.0), 0.1% SDS, 1% NP40, and 0.5% deoxycholate) supplemented with protease inhibitor cocktail (Calbiochem, San Diego, Calif.). The sample volumes were adjusted by the total protein amount. Protein assay was performed by Bio-Rad Protein Assay (Bio-Rad Laboratories, Inc. Hercules, Calif.). […] The signals were detected by western blot chemiluminescence reagent plus (New England Nuclear Life Science Products, Boston, Mass.). […]

[4] = system: mitochondrial permeability transition pore (mPTP); test: Mitochondrial permeability transition pore (mPTP) openings by confocal microscopy in HL-1 cells; assay type: cell-based, mouse; conditions: M4N at 5-20 μM, hypoxia 6 hours then normoxia 8 hours, data not shown
Experimental: Measurement of mitochondrial permeability transition pore (mPTP) openings. The mPTP was measured by Image-iT LIVE Mitochondria Transition Pore Assay Kit (Molecular Probes, Eugene Oreg.). The cells were first washed with Hank's Balanced Salt Solution (HBSS) with sodium bicarbonate, calcium, and magnesium that also included HEPES (10 mM), L-glutamine (2 mM) and succinate (100 μM) to support healthy mitochondrial function (modified HBSS). The cells were then labeled with calcein-AM (1.0 μM) and MitoTracker Red CMSRos dye ([…]) in modified HBSS with […] CoCl2 for 15 minutes. After the medium was changed to the normal HL-1 culture medium, the cells were treated with M4N at various concentrations (0, 5, 10, 20, 40, and 80 μM). The cells were incubated under hypoxia for 6 hours, followed with under normoxia for 8 hours. After the cells were washed with modified HBSS, they were examined by B29/Zeiss LSM 510 META laser confocal microscope (Carl Zeiss, Jena, Germany) for calcein at FITC settings and for MitoTracker at rhodamine settings.

HL-1 mouse heart cells [5] = test: UCN-01-induced cell death in HL-1 cells, Trypan blue exclusion assay; assay type: cell-based; conditions: M4N around 20 μM; UCN-01 (0.2 μM) for 24 hours; FIG. 4
Experimental: FIG. 4 depicts the effect of M4N on cell death induced by UCN-01 treatment in HL-1 mouse heart cells. The cells were treated with M4N followed with UCN-01 (0.2 μM) treatment for 24 hours. The cell death was measured with Trypan Blue exclusion assay. The asterisk indicates a statistically significant difference by t-test at the error rate of less than 2%. For the Trypan blue exclusion assay, the cells were washed with PBS (−) once and resuspended in PBS (−) again. One part of the resuspended cell solution was mixed with one part of 0.4% Trypan blue solution (Sigma). In about 5 to 15 minutes the numbers of both the cells without staining and the cells with staining were counted. The percentages of the number of the cells with staining to the total cell number (which equals to the number of the cells with staining and that of the cells without staining) were calculated. Effect of M4N on UCN-01-inducing cell death. Next, the effect of M4N on the cell death induced by UCN-01, an anticancer drug, in HL-1 cells (FIG. 4) was examined.

BNIP3 [6] = test: BNIP3 expression in human cancer cells (LNCaP, PC3, MCF-7, HepG2); assay type: cell-based
LNCAP cells = test: Mitochondrial metabolism and membrane potential in LNCaP cells; assay type: cell-based, human; conditions: data not shown
[7] = numerous clinical trials as an anticancer drug; cited from earlier work

COc1ccc(C[C@@H](C)[C@@H](C)Cc2ccc(OC)c(OC)c2)cc1OC [M4N, tetra-o-methyl nordihydroguaiaretic acid]
TUNEL-positive cell death induced by hypoxia (HL-1 mouse heart cells [1]): reduced the cell death induced by hypoxia
cell death induced by hypoxia, Trypan blue exclusion assay (HL-1 mouse heart cells [2]; either 6 hour hypoxia with additional 18 hour normoxia or 24 hour hypoxia): reduced the cell death induced by hypoxia
cell death under normoxic condition, Trypan blue exclusion assay (HL-1 mouse heart cells [2]; normoxic condition, compared with the control): reduced cell death compared with the control
BNIP3 expression (western blotting) (BNIP3 [3]): suppressed
mPTP openings induced by hypoxia [4]: suppressed mPTP openings induced by hypoxia
UCN-01-mediated cell death, Trypan blue exclusion assay (HL-1 mouse heart cells [5]): reduced UCN-01-mediated cell death
BNIP3 expression at the transcription level (BNIP3 [6]; LNCaP human prostate cancer cells, internal data not shown): blocks BNIP3 expression
expression of BNIP3 in various cancer cells (BNIP3 [6]; LNCaP, PC3, MCF-7, HepG2 cells, previously found): reduced the expression of BNIP3
mitochondrial membrane potential (ΔΨm) (LNCAP cells): induce hyperpolarization of ΔΨm
mitochondrial metabolism (LNCAP cells): suppress mitochondrial metabolism
toxicity and safety in clinical trials [7]: very nontoxic and safe drug
